{
  "source": "patent US4563446A",
  "about": "“Thromboxane synthetase inhibiting 3-(1-alkenyl) pyridines” (Takeda Chemical Industries, Ltd., priority 1983, dated 1986)",
  "data": [
    {"tested_on": "TXA2 synthetase", "assay": "Inhibitory effect on blood thromboxane A2 (TXA2) production in rats", "assay_type": "in vivo, Male Sprague-Dawley rats", "settings": "10 mg/kg oral, 2 hours after administration; serum TXB2 by radioimmunoassay, versus control", "experimental": "Male Sprague-Dawley rats aged 7 to 8 weeks were used in groups of 5 individuals. Rats in the dosing group received by oral administration of 2 ml/kg of an aqueous suspension of 10 mg/kg of the test compound prepared with a small amount of gum arabic. To rats in the control group, a suspension of gum arabic only was similarly administered. Two hours after administration, each rat was anesthetized with pentobarbital sodium (50 mg/kg, intraperitoneal) and 1 ml of blood was taken from the abdominal aorta. The blood was allowed to stand at 25° C. for 90 minutes, after which it was centrifuged at 15,000 rpm for 2 minutes to separate the serum. The serum thromboxane B2 (TXB2) which was a stable metabolite of TXA2 produced in the blood during the standing procedure was determined by radioimmunoassay (Shibouta et al., Biochemical Pharmacol. 28, 3601, 1979). The percent inhibition of TXA2 synthetase was calculated from the difference in TXB2 production between the control and dosing groups.", "units": {"% inhibition of TXA2 synthetase": "%"}, "values": [
      {"compound": "CCCCC/C=C(\\c1ccccc1)c1cccnc1", "note": "[Id-5, (E)-1-phenyl-1-(3-pyridyl)-1-heptene]", "% inhibition of TXA2 synthetase": 73},
      {"compound": "O=C(O)CCCCCCCCC/C=C(\\c1ccccc1)c1cccnc1", "note": "[Id-9, (E)-12-phenyl-12-(3-pyridyl)-11-dodecenoic acid]", "% inhibition of TXA2 synthetase": 90},
      {"compound": "OCCCCC/C=C(\\c1ccccc1)c1cccnc1", "note": "[Id-14, (E)-7-phenyl-7-(3-pyridyl)-6-hepten-1-ol]", "% inhibition of TXA2 synthetase": 92},
      {"compound": "OCCCCC/C=C(/c1ccccc1)c1cccnc1", "note": "[Id-15]", "% inhibition of TXA2 synthetase": 87},
      {"compound": "OCCCCC/C=C(\\c1cccnc1)c1cccs1", "note": "[Id-17, (E)-7-(3-pyridyl)-7-(2-thienyl)-6-hepten-1-ol]", "% inhibition of TXA2 synthetase": 95},
      {"compound": "OCCCCC/C=C(\\c1cccnc1)c1cccs1", "note": "[Id-18]", "% inhibition of TXA2 synthetase": 72},
      {"compound": "CC(=O)OCCCCC/C=C(\\c1ccccc1)c1cccnc1", "note": "[Id-19, 1-acetoxy-(E)-7-phenyl-7-(3-pyridyl)-6-heptene]", "% inhibition of TXA2 synthetase": 94},
      {"compound": "O=COCCCCC/C=C(\\c1ccccc1)c1cccnc1", "note": "[Id-20, 1-formyloxy-(E)-7-phenyl-7-(3-pyridyl)-6-heptene]", "% inhibition of TXA2 synthetase": 87},
      {"compound": "CNC(=O)OCCCCC/C=C(\\c1ccccc1)c1cccnc1", "note": "[Id-24, 1-methylaminocarbonyloxy-(E)-7-phenyl-7-(3-pyridyl)-6-heptene]", "% inhibition of TXA2 synthetase": 90},
      {"compound": "CCCCNC(=O)OCCCCC/C=C(\\c1ccccc1)c1cccnc1", "note": "[Id-25, 1-(n-butyl)aminocarbonyloxy-(E)-7-phenyl-7-(3-pyridyl)-6-heptene]", "% inhibition of TXA2 synthetase": 83},
      {"compound": "O=C(Nc1ccccc1)OCCCCC/C=C(\\c1ccccc1)c1cccnc1", "note": "[Id-27, 1-phenylaminocarbonyloxy-(E)-7-phenyl-7-(3-pyridyl)-6-heptene]", "% inhibition of TXA2 synthetase": 87},
      {"compound": "S=C(Nc1ccccc1)OCCCCC/C=C(\\c1ccccc1)c1cccnc1", "note": "[Id-28, 1-phenylaminothiocarbonyloxy-(E)-7-phenyl-7-(3-pyridyl)-6-heptene]", "% inhibition of TXA2 synthetase": 79},
      {"compound": "Cc1ccc(S(=O)(=O)NC(=O)OCCCCC/C=C(\\c2ccccc2)c2cccnc2)cc1", "note": "[Id-29, 1-(p-toluenesulfonyl)aminocarbonyloxy-(E)-7-phenyl-7-(3-pyridyl)-6-heptene]", "% inhibition of TXA2 synthetase": 94},
      {"compound": "O=[N+]([O-])OCCCCC/C=C(\\c1ccccc1)c1cccnc1", "note": "[Id-32, 1-nitroxy-(E)-7-phenyl-7-(3-pyridyl)-6-heptene]", "% inhibition of TXA2 synthetase": 94},
      {"compound": "COCCCCC/C=C(\\c1ccccc1)c1cccnc1", "note": "[Id-37, (E)-1-methoxy-7-phenyl-7-(3-pyridyl)-6-heptene]", "% inhibition of TXA2 synthetase": 92},
      {"compound": "NC(=O)CCCC/C=C(\\c1ccccc1)c1cccnc1", "note": "[Id-43, (E)-7-phenyl-7-(3-pyridyl)-6-heptenamide]", "% inhibition of TXA2 synthetase": 93},
      {"compound": "O=C(CCCC/C=C(\\c1ccccc1)c1cccnc1)Nc1ccccc1", "note": "[Id-44, N-phenylamide of (E)-7-phenyl-7-(3-pyridyl)-6-heptenoic acid]", "% inhibition of TXA2 synthetase": 94},
      {"compound": "CC(C)(C)[Si](C)(C)OCCCCC/C=C(\\c1ccccc1)c1cccnc1", "note": "[Id-48, dimethyl-t-butylsilyl ether of (E)-7-phenyl-7-(3-pyridyl)-6-hepten-1-ol]", "% inhibition of TXA2 synthetase": 91},
      {"compound": "O=C(O)CCCC/C=C(\\c1ccccc1)c1ccc[n+]([O-])c1", "note": "[Ie-2, (E)-7-phenyl-7-(1-oxide-3-pyridyl)-6-heptenoic acid]", "% inhibition of TXA2 synthetase": 85},
      {"compound": "O=C(O)CCCC/C=C(/c1ccccc1)c1ccc[n+]([O-])c1", "note": "[Ie-3]", "% inhibition of TXA2 synthetase": 70},
      {"compound": "O=C(O)CCCCCCCCC/C=C(\\c1ccccc1)c1ccc[n+]([O-])c1", "note": "[Ie-4]", "% inhibition of TXA2 synthetase": 85},
      {"compound": "O=C(O)CCCC/C=C(/c1ccc[n+]([O-])c1)c1cccs1", "note": "[Ie-5]", "% inhibition of TXA2 synthetase": 90},
      {"compound": "COC(=O)CCCC/C=C(\\c1ccccc1)c1ccc[n+]([O-])c1", "note": "[Ie-6]", "% inhibition of TXA2 synthetase": 80},
      {"compound": "[O-][n+]1cccc(/C(=C/CCCCCO)c2ccccc2)c1", "note": "[Ie-7, (E)-7-phenyl-7-(1-oxide-3-pyridyl)-6-hepten-1-ol]", "% inhibition of TXA2 synthetase": 80},
      {"compound": "O=C(Nc1ccccc1)OCCCCC/C=C(\\c1ccccc1)c1ccc[n+]([O-])c1", "note": "[Ie-8]", "% inhibition of TXA2 synthetase": 80},
      {"compound": "CCCCC/C=C(\\c1ccccc1)c1ccc[n+]([O-])c1", "note": "[Ie-9]", "% inhibition of TXA2 synthetase": 68}
    ]},
    {"tested_on": "not listed separately", "assay": "Oral toxicity", "assay_type": "in vivo", "settings": "1000 mg/kg/day, five rats, 14 days", "description": "Moreover, the compounds of the invention are very low in toxicity in rats, dogs and so forth and characterized by broad margin between the toxic dose and the therapeutically effective dose. […] Furthermore, the compounds (I) of the invention produced long-lasting pharmacological effects in vivo, so that their TXA2 synthetase inhibiting activity is expected to be retained stably for a prolonged period of time. Accordingly, the compounds provided by the invention are used in low doses in mammals, including humans, for the prevention or treatment of thrombosis due to TXA2 -induced platelet aggregation, ischemic diseases due to vasospasm in heart, brain, periphery and circulatory system (e.g. myocardial infarction, stroke, renal infarction, pulmonary infarction, infarction at some other site, digestive tract ulcer) and diseases due to imbalance of the ratio of TXA2 /PGI2, with low incidence of adverse effects resulting from long-term continuous use thereof. They are administered orally in the form of tablets, capsules, powders or granules, for instance, or parenterally in the form of injections or pellets. Generally, they are used in a daily oral dose of 20-200 mg per adult human or a daily parenteral dose of 10-100 mg per adult human, respectively in 1-3 divided doses.", "values": [
      {"compound": "OCCCCC/C=C(\\c1ccccc1)c1cccnc1", "note": "[Id-14, (E)-7-phenyl-7-(3-pyridyl)-6-hepten-1-ol]", "Deaths": "no rat was dead for 14 days"}
    ]}
  ]
}
